Drawing on patent US9630958B2, “Triazine compounds” (Sphaera Pharma Pte. Ltd., priority 2012, dated 2017), this text covers IC50 and inhibition for 20 molecules.

The IC50 is the concentration that inhibits the measured activity by half.

The structures appear in SMILES notation. Bounds are passed on as bounds.

Assay [1] deals with T1, Recombinant mTOR (FRAP1) (Homo sapiens, UniProt P42345).
T1 construct: purchased Invitrogen
Description: mTOR in vitro kinase assay (TR-FRET, phosphorylation of GFP-4E-BP1). It is filed as biochemical. To be noted: for IC50: 8 μM ATP, 400 nM GFP-4E-BP1; for inhibition at 1 µM: 1 uM compound, read-out: mTOR % Inhib@1 uM. The procedure: Compounds were evaluated for mTOR activity using an in vitro kinase assay.
mTOR activity is measured in vitro by determining the level of phosphorylation of the protein substrate 4EBP-1. The phosphorylation of GFP-4E-BP1 at threonine residue is recognized by Ab Tb-Anti-p4EBP1, which results in time resolved fluorescence energy transfer (TR-FRET) between GFP and Terbium in the Ab-Protein complex.
Recombinant mTOR (FRAP1), Kinase reaction buffer, GFP-4E-BP1 and LanthaScreen Tb-anti-4E-BP1 (pThr46), TR FRET dilution buffer, Kinase Quench Buffer were obtained from Invitrogen.
Kinase reactions were performed in 10 μl volume in Corning white 384 well plates. […] The reaction was initiated by the addition of substrate (GFP-4E-BP1) and ATP at a final conc. of 400 nM and 8 μM ATP in the reaction respectively. The kinase reaction was allowed to proceed for 1 hour at room temperature before a 10 μL preparation of kinase quench buffer and Tb-labeled Antibody in TR-FRET dilution buffer was added. The final concentration of the antibody in the assay well is 2 nM and the final concentration of EDTA is 10 mM. The plate was incubated at room temperature for 1 h.
(§1) FRET signal was read in Envision Multilabel Reader with the following filters:
Excitation-330 nm and Emission 486 nm (donor) and 520 nm (acceptor).
TR FRET Ratio (Fluorescence 520 nm/Fluorescence 486 nm) was plotted against the concentration of inhibitor and data was fit to Non Linear Regression curve fit (sigmoidal dose response curve with variable slope-four parameters) using Graph Pad Prism 5.

The target of assay [2] is T2, PI3 Kinase alpha (p110 alpha/p85 alpha) (Homo sapiens, UniProt P42336).
T2 construct: purchased Invitrogen
The assay can be described thus: PI3K TR-FRET assay (Transcreener ADP2). To be noted: for IC50: PI3K alpha, 1 μM ATP, 50 μM PIP2; for inhibition at 1 µM: 1 uM compound, read-out: PI3K % Inhib@1 uM. It is filed as biochemical. The procedure:
Enzymatic activity of PI3K alpha was measured using Time resolved Fluorescence resonance energy transfer (TR-FRET) assay. This assay utilizes ADP detection as a means to screen inhibitor potency of compounds. The Transcreener ADP2 TR-FRET Red Assay is a competitive immunoassay for ADP with a far-red, TR-FRET readout and it has been used for this purpose. The assay can be used for any enzyme class that produces ADP (Kinases, ATPases). It consists of ADP HiLyte647 Tracer, ADP^2 Antibody-Tb conjugate (800 nM), stop & detect buffer, 5 mM ATP, 5 mM ADP. The ADP HiLyte647 Tracer is bound to an ADP^2 Antibody-Tb conjugate. The excitation of the terbium complex in the UV range results in energy transfer to the tracer and emission at a higher wavelength after a time delay ADP produced by the target enzyme displaces the tracer which causes decrease in TR-FRET.
The reaction buffer used for the assay was 50 mM HEPES, pH 7.4.3 mM MgCl2, 0.05% CHAPS, 50 mM NaCl, 2 mM DTT, 1 mM EGTA. PI3 Kinase alpha (p110 alpha/p85 alpha) and PIP2 Substrate (diC8,) were procured from Invitrogen and Echelon respectively.
Kinase reactions were performed in 10 μl volume in Corning white 384 well plates. […] Reaction was initiated by the addition of substrate (PIP2) and ATP at final conc. of 50 μM and 1 μM ATP in the reaction respectively. Kinase reactions were allowed to proceed for 1 hour at room temperature before a 10 μL preparation of Transcreener ADP detection mix was added. Plate was incubated at room temperature for 1 hr. ADP-ATP standard curves were also prepared.
as §1
Excitation-330 nm and Emission 615 nm (donor) and 665 nm (acceptor). TR FRET Ratio (Fluorescence 665 nm/Fluorescence 615 nm) was converted to amount of product formed using the standard curve generated. Percentage inhibition was calculated and plotted against the concentration of inhibitor and data was fit to Non Linear Regression curve fit (sigmoidal dose response curve with variable slope-four parameters) using Graph pad prism 5 and IC50 was calculated for the compound.

T1 sequence (P42345 1360-2549 limits assumed): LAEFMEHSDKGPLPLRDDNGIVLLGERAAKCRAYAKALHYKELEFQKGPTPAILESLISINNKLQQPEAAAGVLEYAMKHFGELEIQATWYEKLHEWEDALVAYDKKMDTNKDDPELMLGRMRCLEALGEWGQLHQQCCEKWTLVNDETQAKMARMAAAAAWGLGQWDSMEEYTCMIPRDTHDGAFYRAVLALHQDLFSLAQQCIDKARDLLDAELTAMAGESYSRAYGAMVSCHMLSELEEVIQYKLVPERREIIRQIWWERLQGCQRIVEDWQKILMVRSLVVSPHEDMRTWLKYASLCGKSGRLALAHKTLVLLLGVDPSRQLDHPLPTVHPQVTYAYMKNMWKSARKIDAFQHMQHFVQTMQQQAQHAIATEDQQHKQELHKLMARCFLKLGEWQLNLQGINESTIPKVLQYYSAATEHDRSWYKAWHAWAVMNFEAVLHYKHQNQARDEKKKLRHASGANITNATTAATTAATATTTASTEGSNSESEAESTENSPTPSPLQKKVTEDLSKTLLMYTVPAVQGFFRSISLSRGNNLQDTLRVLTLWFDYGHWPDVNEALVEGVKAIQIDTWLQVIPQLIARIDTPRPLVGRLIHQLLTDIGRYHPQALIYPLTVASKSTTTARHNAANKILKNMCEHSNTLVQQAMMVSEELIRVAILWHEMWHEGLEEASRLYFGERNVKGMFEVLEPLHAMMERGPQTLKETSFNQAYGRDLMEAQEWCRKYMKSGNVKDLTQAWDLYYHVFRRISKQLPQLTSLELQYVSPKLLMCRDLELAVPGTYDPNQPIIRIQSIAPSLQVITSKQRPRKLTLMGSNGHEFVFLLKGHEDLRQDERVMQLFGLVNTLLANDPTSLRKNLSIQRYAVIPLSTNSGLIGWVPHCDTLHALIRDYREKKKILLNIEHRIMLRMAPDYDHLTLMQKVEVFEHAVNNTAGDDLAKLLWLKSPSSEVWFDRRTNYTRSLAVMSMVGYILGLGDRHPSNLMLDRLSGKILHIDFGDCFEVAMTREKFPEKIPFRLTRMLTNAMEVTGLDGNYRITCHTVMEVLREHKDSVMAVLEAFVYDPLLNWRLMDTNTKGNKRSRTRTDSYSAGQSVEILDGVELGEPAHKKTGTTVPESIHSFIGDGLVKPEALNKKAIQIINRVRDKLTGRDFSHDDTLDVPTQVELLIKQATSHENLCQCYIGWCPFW
T2 sequence (P42336 whole entry): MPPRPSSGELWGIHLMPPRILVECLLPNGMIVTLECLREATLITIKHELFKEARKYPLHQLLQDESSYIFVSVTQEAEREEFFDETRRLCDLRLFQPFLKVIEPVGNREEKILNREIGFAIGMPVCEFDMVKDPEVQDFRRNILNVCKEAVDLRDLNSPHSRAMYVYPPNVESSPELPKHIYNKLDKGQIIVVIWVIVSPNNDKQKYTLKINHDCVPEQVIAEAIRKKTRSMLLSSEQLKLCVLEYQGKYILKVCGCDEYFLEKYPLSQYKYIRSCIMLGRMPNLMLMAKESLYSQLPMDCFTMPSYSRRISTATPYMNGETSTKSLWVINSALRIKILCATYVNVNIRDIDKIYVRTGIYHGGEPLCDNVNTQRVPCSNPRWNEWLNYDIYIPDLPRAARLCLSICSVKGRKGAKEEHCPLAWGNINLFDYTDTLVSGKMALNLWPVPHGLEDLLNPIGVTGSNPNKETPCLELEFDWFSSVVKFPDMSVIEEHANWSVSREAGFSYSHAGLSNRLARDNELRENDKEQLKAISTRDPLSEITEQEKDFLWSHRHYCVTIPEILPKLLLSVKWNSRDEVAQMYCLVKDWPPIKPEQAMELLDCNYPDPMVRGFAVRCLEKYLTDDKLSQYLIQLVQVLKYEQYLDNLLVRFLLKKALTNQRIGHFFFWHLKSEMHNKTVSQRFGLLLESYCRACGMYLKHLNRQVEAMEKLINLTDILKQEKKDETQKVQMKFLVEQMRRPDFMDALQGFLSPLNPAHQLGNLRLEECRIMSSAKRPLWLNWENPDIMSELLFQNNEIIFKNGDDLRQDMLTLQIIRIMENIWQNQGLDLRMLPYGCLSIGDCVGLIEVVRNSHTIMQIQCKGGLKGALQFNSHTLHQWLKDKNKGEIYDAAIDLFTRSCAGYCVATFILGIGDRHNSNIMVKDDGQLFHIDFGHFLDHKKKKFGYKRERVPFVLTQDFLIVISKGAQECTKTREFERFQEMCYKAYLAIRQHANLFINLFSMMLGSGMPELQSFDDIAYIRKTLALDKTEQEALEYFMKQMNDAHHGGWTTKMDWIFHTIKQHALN
T2 sequence (P27986 whole entry partner): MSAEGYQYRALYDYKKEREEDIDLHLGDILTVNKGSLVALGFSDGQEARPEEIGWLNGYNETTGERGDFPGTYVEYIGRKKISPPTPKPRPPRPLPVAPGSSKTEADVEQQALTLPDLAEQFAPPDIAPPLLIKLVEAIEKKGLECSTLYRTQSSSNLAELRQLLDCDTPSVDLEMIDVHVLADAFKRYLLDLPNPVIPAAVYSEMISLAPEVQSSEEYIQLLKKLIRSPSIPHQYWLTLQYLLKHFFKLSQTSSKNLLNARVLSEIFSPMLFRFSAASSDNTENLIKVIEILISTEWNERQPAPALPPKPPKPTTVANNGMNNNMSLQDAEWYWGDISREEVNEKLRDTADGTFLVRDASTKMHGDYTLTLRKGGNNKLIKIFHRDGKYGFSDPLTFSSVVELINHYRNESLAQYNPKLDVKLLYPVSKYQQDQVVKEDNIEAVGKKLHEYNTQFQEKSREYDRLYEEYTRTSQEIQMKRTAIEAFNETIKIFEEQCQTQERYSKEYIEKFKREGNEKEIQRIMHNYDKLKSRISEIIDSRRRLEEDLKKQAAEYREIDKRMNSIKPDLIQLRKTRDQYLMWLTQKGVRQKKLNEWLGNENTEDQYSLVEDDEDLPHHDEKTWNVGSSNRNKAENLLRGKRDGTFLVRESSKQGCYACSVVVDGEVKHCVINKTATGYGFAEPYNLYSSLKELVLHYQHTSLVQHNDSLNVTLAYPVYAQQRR

`C[C@H]1COCCN1c1nc(Oc2ccc(C(=O)N(C)C)cc2F)nc(-c2cnc(N)nc2)n1` [Compound 10204, (S)-4-((4-(2-aminopyrimidin-5-yl)-6-(3-methylmorpholino)-1,3,5-triazin-2-yl)oxy)-3-fluoro-N,N-dimethylbenzamide]: the IC50 in assay [1] and in assay [2] was < 1000 nM in each case.

Turning to `C[C@@H]1CN(c2nc(Oc3ccc(C(=O)N(C)C)cc3F)nc(-c3cnc(N)s3)n2)C[C@H](C)O1` [Compound 10069], the figures for the IC50 in assay [1] and in assay [2] were < 1000 nM and > 1000 nM, respectively.

`C[C@@H]1COCCN1c1nc(Oc2ccc(C(=O)N(C)C)cc2F)nc(-c2ccc(N)nc2)n1` [Compound 10099, (R)-4-((4-(6-Aminopyridin-3-yl)-6-(3-methylmorpholino)-1,3,5-triazin-2-yl)oxy)-3-fluoro-N,N-dimethylbenzamide]: the concentration for half-maximal inhibition (IC50) in assay [1] and in assay [2] was < 1000 nM in each case. Further, the inhibition at 1 µM in assay [2] was > 50%.

As to `CN(C)C(=O)c1ccc(Nc2nc(-c3cnc(N)s3)nc(N3CCOCC3)n2)cc1` [Compound 10196, 4-((4-(2-aminothiazol-5-yl)-6-morpholino-1,3,5-triazin-2-yl)amino)-N,N-dimethylbenzamide], the inhibition at 1 µM in assay [1] was < 50%. Besides, the half-inhibitory concentration (IC50) in assay [2] is < 1000 nM.

Turning to `C[C@H]1COCCN1c1nc(Oc2ccc(C(=O)N(C)C)cc2)nc(-c2cnc3[nH]ccc3c2)n1` [Compound 10157, 4-(4-((S)-3-methylmorpholino)-6-(1H-pyrrolo[2,3-b]pyridin-5-yl)-1,3,5-triazin-2-yloxy)-N,N-dimethylbenzamide], the concentration for half-maximal inhibition (IC50) in assay [1] and in assay [2] was < 1000 nM each time.

Take `CN(C)C(=O)c1ccc(Oc2nc(-c3cnc(N)cc3C(F)(F)F)nc(N3CCOCC3)n2)c(F)c1` [Compound 10065, 4-((4-(6-Amino-4-(trifluoromethyl)pyridine-3-yl)-6-morpholino-1,3,5-triazin-2-yl)oxy)-3-fluoro-N,N-dimethylbenzamide]: the IC50 in assay [1] and in assay [2] was < 1000 nM each time.

Take `CN(C)C(=O)c1cccc(Oc2nc(-c3cnc(N)s3)nc(N3CCOCC3)n2)c1` [Compound 10195, 3-((4-(2-aminothiazol-5-yl)-6-morpholino-1,3,5-triazin-2-yl)oxy)-N,N-dimethylbenzamide]: the inhibition at 1 µM in assay [1] is < 50%. Further, the half-maximal inhibitory concentration (IC50) in assay [2] was < 1000 nM.

For the molecule `CN(C)C(=O)c1ccc(Oc2nc(-c3cnc(N)s3)nc(N3CCCCC3)n2)cc1` [Compound 10119, 4-(4-(2-aminothiazol-5-yl)-6-(piperidin-1-yl)-1,3,5-triazin-2-yloxy)-N,N-dimethylbenzamide], the inhibition at 1 µM in assay [1] is < 50%. For the same molecule, the IC50 in assay [2] was > 10000 nM.

Regarding `CN(C)C(=O)c1ccc(Oc2nc(-c3cnc(N)s3)nc(N3CCNC(=O)C3)n2)cc1` [Compound 10072, 4-((4-(2-Aminothiazol-5-yl)-6-(3-oxopiperazin-1-yl)-1,3,5-triazin-2-yl)oxy)-N,N-dimethylbenzamide], the inhibition at 1 µM in assay [1] and in assay [2] was < 50% throughout.

For `CC1OCCN(c2nc(Oc3ccc(C(=O)N(C)C)cc3F)nc(-c3cnc(N)s3)n2)C1C` (stereo not drawn) [Compound 10159, 4-(4-(2-aminothiazol-5-yl)-6-(2,3-dimethylmorpholino)-1,3,5-triazin-2-yloxy)-3-fluoro-N,N-dimethylbenzamide], the half-maximal inhibitory concentration (IC50) in assay [1] and in assay [2] was < 1000 nM each time.

Consider `C[C@@H]1OCCN(c2nc(Oc3ccc(C(=O)N(C)C)cc3F)nc(-c3cnc(N)s3)n2)[C@H]1C` [Compound 10053, 4-((4-(2-Aminothiazol-5-yl)-6-((2S,3S)-2,3-dimethylmorpholino)-1,3,5-triazin-2-yl)oxy)-3-fluoro-N,N-dimethylbenzamide], for which the 50% inhibitory concentration (IC50) is < 1000 nM in assay [1] and > 1000 nM in assay [2].

In the case of `C[C@@H]1COCCN1c1nc(Oc2ccc(C(=O)N(C)C)cc2)nc(-c2cnc(N)s2)n1` [Compound 10004, (R)-4-(4-(2-aminothiazol-5-yl)-6-(3-methylmorpholino)-1,3,5-triazin-2-yloxy)-N,N-dimethylbenzamide], in assay [1], the inhibition at 1 µM is < 50% and the half-inhibitory concentration (IC50) is < 1000 nM. Further, in assay [2], the half-maximal inhibitory concentration (IC50) was > 1000 nM.

As to `C[C@H]1OCCN(c2nc(Oc3ccc(C(=O)N(C)C)cc3F)nc(-c3cnc(N)s3)n2)[C@H]1C` [Compound 10052, 4-((4-(2-Aminothiazol-5-yl)-6-((2R,3S)-2,3-dimethylmorpholino)-1,3,5-triazin-2-yl)oxy)-3-fluoro-N,N-dimethylbenzamide], the IC50 in assay [1] and in assay [2] was < 1000 nM each time. For the same molecule, the inhibition at 1 µM in assay [2] was > 50%.

With `CN(C)C(=O)c1ccc(Oc2nc(-c3cnc(N)s3)nc(N3CCO[C@@H]4CCCC[C@H]43)n2)cc1` [Compound 10131, 4-(4-(2-aminothiazol-5-yl)-6-((4aR,8aR)-octahydrobenzo[b][1,4]oxazin-4-yl)-1,3,5-triazin-2-yloxy)-N,N-dimethylbenzamide], the inhibition at 1 µM in assay [1] and in assay [2] was < 50% in each case.

As to `CN(C)C(=O)c1ccc(Oc2nc(-c3cnc(N)s3)nc(N3CCS(=O)(=O)CC3)n2)cc1` [Compound 10123], the inhibition at 1 µM in assay [1] and in assay [2] was < 50% in each case.

With `C[C@H]1CN(c2nc(Oc3ccc(C(=O)N(C)C)cc3)nc(-c3cnc(N)s3)n2)[C@@H](C)CO1` [Compound 10077, 4-((4-(2-Aminothiazol-5-yl)-6-((2S,5S)-2,5-dimethylmorpholino)-1,3,5-triazin-2-yl)oxy)-N,N-dimethylbenzamide], the half-inhibitory concentration (IC50) in assay [1] was < 1000 nM. Besides, in assay [2], the inhibition at 1 µM was > 50% and the IC50 was < 1000 nM.

Regarding `CN(C)C(=O)[C@H]1CC[C@H](Oc2nc(-c3ccc(N)nc3)nc(N3CCO[C@@H]4CCC[C@H]43)n2)CC1` [Compound 10148, (1R,4r)-4-(4-(6-aminopyridin-3-yl)-6-((4aR,7aR)-hexahydrocyclopenta[b][1,4]oxazin-4(4aH)-yl)-1,3,5-triazin-2-yloxy)-N,N-dimethylcyclohexanecarboxamide], the IC50 in assay [1] is < 1000 nM. In addition, the inhibition at 1 µM in assay [2] is < 50%.

In the case of `CN(C)C(=O)c1ccc(Oc2nc(-c3cccc4[nH]ncc34)nc(N3[C@@H]4CC[C@H]3COC4)n2)cc1` [Compound 10174, 4-((4-((1R,5S)-3-oxa-8-azabicyclo[3.2.1]octan-8-yl)-6-(1H-indazol-4-yl)-1,3,5-triazin-2-yl)oxy)-N,N-dimethylbenzamide], the inhibition at 1 µM in assay [1] is < 50%. Further, the IC50 in assay [2] was > 1000 nM.

As to `CN(C)C(=O)c1ccc(Oc2nc(-c3ccc(N)nc3)nc(N3CCCOCC3)n2)cc1` [Compound 10178, 4-((4-(6-aminopyridin-3-yl)-6-(1,4-oxazepan-4-yl)-1,3,5-triazin-2-yl)oxy)-N,N-dimethylbenzamide], in assay [1], the inhibition at 1 µM was < 50%. Moreover, the concentration for half-maximal inhibition (IC50) in assay [2] is < 1000 nM.

As to `C[C@H]1COCCN1c1nc(Oc2ccc(C(=O)N(C)C)cc2)nc(-c2cnc(N(C)C)s2)n1` [Compound 10143, 4-(4-(2-(dimethylamino)thiazol-5-yl)-6-((S)-3-methylmorpholino)-1,3,5-triazin-2-yloxy)-N,N-dimethylbenzamide], the 50% inhibitory concentration (IC50) in assay [1] is > 1000 nM. Also, in assay [2], the inhibition at 1 µM is < 50% and the half-maximal inhibitory concentration (IC50) is > 1000 nM.
